Laboratory results reported in US9067914B1, “Tropomyosin-related kinase (TRK) inhibitors” (Genzyme Corporation, priority 2013, dated 2015).
Like-named read-outs stand apart in the source and are kept apart here.

Experiments:
TrkA = TrkA (Homo sapiens (Human), UniProt P04629); test: TrkA activity, off-chip mobility shift assay (LabChip 3000); type: biochemical; settings: 55 μM ATP (ATP Km); n/d = none detected
Text: (§1) Reagents and consumables were purchased from Sigma Aldrich, Carna Biosciences, or Caliper Life Sciences. All assay reaction conditions for IC50 determinations were within the linear range with respect to time and enzyme concentration. […] The LabChip 3000 separates and measures the fluorescent signal of fluorescein labeled peptide substrate and fluorescein labeled peptide product present in each well. Results are expressed as percent conversion by measuring peak height for both the substrate and product and dividing the product peak height by the sum of peak heights for both substrate and product.

TrkB = TrkB (Homo sapiens (Human), UniProt Q16620); test: TrkB activity, off-chip mobility shift assay (LabChip 3000); type: biochemical
Text: as §1

[1] = 70 μM ATP (ATP Km), n/d = none detected

Sequence of TrkA (P04629 33-796): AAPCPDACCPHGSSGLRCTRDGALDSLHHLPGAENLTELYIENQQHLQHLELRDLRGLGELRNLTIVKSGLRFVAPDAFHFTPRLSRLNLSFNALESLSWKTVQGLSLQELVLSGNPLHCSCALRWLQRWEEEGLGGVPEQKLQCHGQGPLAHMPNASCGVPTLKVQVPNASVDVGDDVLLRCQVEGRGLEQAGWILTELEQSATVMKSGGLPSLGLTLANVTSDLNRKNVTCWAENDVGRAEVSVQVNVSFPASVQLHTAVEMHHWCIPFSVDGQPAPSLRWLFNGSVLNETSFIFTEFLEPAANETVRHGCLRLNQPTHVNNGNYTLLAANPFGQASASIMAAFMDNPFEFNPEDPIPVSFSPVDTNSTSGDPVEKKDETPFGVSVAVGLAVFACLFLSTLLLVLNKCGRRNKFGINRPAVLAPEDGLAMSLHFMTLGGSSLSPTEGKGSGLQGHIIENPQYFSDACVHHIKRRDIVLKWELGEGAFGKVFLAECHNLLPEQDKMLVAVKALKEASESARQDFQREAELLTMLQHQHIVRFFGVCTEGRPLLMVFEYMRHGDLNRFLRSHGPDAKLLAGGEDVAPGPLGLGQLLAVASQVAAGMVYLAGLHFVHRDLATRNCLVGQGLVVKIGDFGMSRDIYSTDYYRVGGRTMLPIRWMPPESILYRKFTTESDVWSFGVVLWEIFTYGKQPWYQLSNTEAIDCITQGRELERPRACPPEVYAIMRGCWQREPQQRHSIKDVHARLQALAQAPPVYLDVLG
Sequence of TrkB (Q16620 32-822): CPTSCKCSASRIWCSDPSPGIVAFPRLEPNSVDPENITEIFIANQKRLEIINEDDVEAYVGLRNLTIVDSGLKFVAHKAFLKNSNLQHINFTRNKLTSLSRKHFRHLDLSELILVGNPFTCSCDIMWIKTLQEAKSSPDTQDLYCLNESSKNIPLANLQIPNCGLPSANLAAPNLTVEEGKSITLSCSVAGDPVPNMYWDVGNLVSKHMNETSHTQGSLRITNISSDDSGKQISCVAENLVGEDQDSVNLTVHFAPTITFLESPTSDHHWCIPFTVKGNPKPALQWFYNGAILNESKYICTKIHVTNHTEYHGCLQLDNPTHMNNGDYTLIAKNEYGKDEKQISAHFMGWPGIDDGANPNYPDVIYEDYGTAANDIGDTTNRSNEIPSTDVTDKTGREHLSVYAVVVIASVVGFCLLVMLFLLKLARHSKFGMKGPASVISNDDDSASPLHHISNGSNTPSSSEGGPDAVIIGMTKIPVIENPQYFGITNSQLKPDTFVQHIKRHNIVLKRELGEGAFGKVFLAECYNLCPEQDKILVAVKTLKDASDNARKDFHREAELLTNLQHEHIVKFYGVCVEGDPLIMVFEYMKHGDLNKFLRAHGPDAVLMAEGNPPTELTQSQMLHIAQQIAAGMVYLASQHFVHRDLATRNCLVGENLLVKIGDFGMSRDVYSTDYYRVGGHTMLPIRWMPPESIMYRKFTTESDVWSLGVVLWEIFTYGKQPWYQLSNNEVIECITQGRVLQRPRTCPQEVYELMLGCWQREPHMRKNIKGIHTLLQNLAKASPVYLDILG

IC50 (TrkA) [nM] | IC50 (TrkB; [1]) [nM] | IC50 (TrkB) [nM] | Structure (SMILES)
0.3 |  |  | COc1cc([C@H](C)n2c(N)nc3cc(-c4cnn(C)c4)cnc32)ccc1OCc1ccc(C(F)(F)F)cc1 (single isomer, unassigned) [Ex. 3-49-6a, 3-(1-(3-methoxy-4-((4-(trifluoromethyl)benzyl)oxy)phenyl)ethyl)-6-(1-methyl-1H-pyrazol-4-yl)-3H-imidazo[4,5-b]pyridin-2-amine]
5 |  |  | COc1cc([C@@H](C)n2c(N)nc3cc(-c4cnn(C)c4)cnc32)ccc1OCc1ccc(C(F)(F)F)cc1 (single isomer, unassigned) [Ex. 3-49-6b, 3-(1-(3-methoxy-4-((4-(trifluoromethyl)benzyl)oxy)phenyl)ethyl)-6-(1-methyl-1H-pyrazol-4-yl)-3H-imidazo[4,5-b]pyridin-2-amine]
32 | 26 |  | CCC(Oc1ccc(Cn2c(N)nc3cc(-c4cnn(C)c4)cnc32)cc1OC)c1ccc(OC)nc1 (centres unmarked) [3-34, 3-(3-methoxy-4-(1-(6-methoxypyridin-3-yl)propoxy)benzyl)-6-(1-methyl-1H-pyrazol-4-yl)-3H-imidazo[4,5-b]pyridin-2-amine]
1 | 0.5 |  | COc1ccc(COc2ccc(Cn3c(N)nc4cc(-c5cnn(C)c5)ccc43)cc2OC)cc1 [Ex. 3-1, 1-(3-Methoxy-4-((4-methoxybenzyl)oxy)benzyl)-5-(1-methyl-1H-pyrazol-4-yl)-1H-benzo[d]imidazol-2-amine]
86 | 23 |  | COc1ccc(COc2ccc(Cn3c(N)nc4cc(-c5cncnc5)ccc43)cc2OC)cc1 [Ex. 3-2-1, 1-(3-Methoxy-4-((4-methoxybenzyl)oxy)benzyl)-5-(pyrimidin-5-yl)-1H-benzo[d]imidazol-2-amine]
8 | 4 |  | COc1ccc(COc2ccc(Cn3c(N)nc4cc(-c5ccncc5)ccc43)cc2OC)cc1 [Ex. 3-2-2, 1-(3-Methoxy-4-((4-methoxybenzyl)oxy)benzyl)-5-(pyridine-4-yl)-1H-benzo[d]imidazol-2-amine]
3 | 1 |  | COc1ccc(COc2ccc(Cn3c(N)nc4cc(-c5cnn(CCN6CCOCC6)c5)ccc43)cc2OC)cc1 [Ex. 3-2-3, 1-(3-Methoxy-4-((4-methoxybenzyl)oxy)benzyl)-5-(1-(2-morpholinoethyl)-1H-pyrazol-4-yl)-1H-benzo[d]imidazol-2-amine]
7 | 6 |  | COc1ccc(COc2ccc(Cn3c(N)nc4cc(-c5ccc(P(C)(C)=O)nc5)ccc43)cc2OC)cc1 [Ex. 3-3, (5-(2-Amino-1-(3-methoxy-4-((4-methoxybenzyl)oxy)benzyl)-1H-benzo[d]imidazol-5-yl)pyridin-2-yl)dimethylphosphine oxide]
175 | 86 |  | COc1ccc(COc2ccc(Cn3cnc4cc(-n5cc(C6CCCNC6)nn5)ccc43)cc2OC)cn1 (centres unmarked) [Ex. 3-6, 1-(3-Methoxy-4-((6-methoxypyridin-3-yl)methoxy)benzyl)-5-(4-(piperidin-3-yl)-1H-1,2,3-triazol-1-yl)-1H-benzo[d]imidazole]
11100 | 3460 |  | COc1ccc(COc2ccc(Cn3cnc4cc(C5CCNCC5)ccc43)cc2OC)cn1 [Ex. 3-8, 1-(3-Methoxy-4-((6-methoxypyridin-3-yl)methoxy)benzyl)-5-(piperidin-4-yl)-1H-benzo[d]imidazole]
793 |  | 257 | COc1ccc(COc2ccc(Cn3cnc4cc(N5CCOCC5)ccc43)cc2OC)cn1 [Ex. 3-9, 4-(1-(3-Methoxy-4-((6-methoxypyridin-3-yl)methoxy)benzyl)-1H-benzo[d]imidazol-5-yl)morpholine]
652 | 574 |  | COc1ccc(COc2ccc(Cn3cnc4cc(N5CCC(C(C)(C)N)CC5)ccc43)cc2OC)cn1 [Ex. 3-10, 2-(1-(1-(3-Methoxy-4-((6-methoxypyridin-3-yl)methoxy)benzyl)-1H-benzo[d]imidazol-5-yl)piperidin-4-yl)propan-2-amine]
135 | 120 |  | COc1ccc(COc2ccc(Cn3cnc4cc(N5CC6(CCNCC6)C5)ccc43)cc2OC)cn1 [Ex. 3-11, 1-(3-methoxy-4-((6-methoxypyridin-3-yl)methoxy)benzyl)-5-(2,7-diazaspiro[3.5]nonan-2-yl)-1H-benzo[d]imidazole]
1030 | 637 |  | COc1ccc(COc2ccc(Cn3cnc4cc(N5CCC(N)CC5)ccc43)cc2OC)cn1 [Ex. 3-12, 1-(1-(3-Methoxy-4-((6-methoxypyridin-3-yl)methoxy)benzyl)-1H-benzo[d]imidazol-5-yl)piperidin-4-amine]
1130 | 443 |  | COc1ccc(COc2ccc(Cn3cnc4cc(N5CCN(C)CC5)ccc43)cc2OC)cn1 [Ex. 3-13, 1-(3-Methoxy-4-((6-methoxypyridin-3-yl)methoxy)benzyl)-5-(4-methylpiperazin-1-yl)-1H-benzo[d]imidazole]
8980 | 4370 |  | COc1ccc(COc2ccc(Cn3c(N)nc4cc(N5CCN(C)CC5=O)ccc43)cc2OC)cn1 [Ex. 3-14, 1-(2-Amino-1-(3-methoxy-4-((6-methoxypyridin-3-yl)methoxy)benzyl)-1H-benzo[d]imidazol-5-yl)-4-methylpiperazin-2-one]
0.5 | 0.2 |  | COc1ccc(COc2ccc(Cn3c(N)nc4cc(-c5ccc(P(C)(C)=O)nc5)cnc43)cc2OC)cc1 [Ex. 3-16, (5-(2-Amino-3-(3-methoxy-4-((4-methoxybenzyl)oxy)benzyl)-3H-imidazo[4,5-b]pyridin-6-yl)pyridin-2-yl)dimethylphosphine oxide]
54 | 57 |  | COc1ccc(COc2ccc(Cn3cnc4cc(N5CCC(C(C)(C)N)CC5)cnc43)cc2OC)cn1 [Ex. 3-18-1, 2-(1-(3-(3-Methoxy-4-((6-methoxypyridin-3-yl)methoxy)benzyl)-3H-imidazo[4,5-b]pyridin-6-yl)piperidin-4-yl)propan-2-amine]
90 | 31 |  | COc1ccc(COc2ccc(Cn3cnc4cc(N5CCOCC5)cnc43)cc2OC)cn1 [Ex. 3-18-2, 4-(3-(3-Methoxy-4-((6-methoxypyridin-3-yl)methoxy)benzyl)-3H-imidazo[4,5-b]pyridin-6-yl)morpholine]
113 | 52 |  | COc1ccc(COc2ccc(Cn3cnc4cc(N5CCN(C6CC6)CC5)cnc43)cc2OC)cn1 [Ex. 3-18-3, 6-(4-Cyclopropylpiperazin-1-yl)-3-(3-methoxy-4-((6-methoxypyridin-3-yl)methoxy)benzyl)-3H-imidazo[4,5-b]pyridine]
470 | 349 |  | COc1ccc(COc2ccc(Cn3cnc4cc(N5CCN6CCC5CC6)cnc43)cc2OC)cn1 [Ex. 3-18-4, 4-(3-(3-Methoxy-4-((6-methoxypyridin-3-yl)methoxy)benzyl)-3H-imidazo[4,5-b]pyridin-6-yl)-1,4-diazabicyclo[3.2.2]nonane]
25 | 21 |  | COc1ccc(COc2ccc(Cn3cnc4cc(N5CC6(CCNCC6)C5)cnc43)cc2OC)cn1 [Ex. 3-18-5, 3-(3-Methoxy-4-((6-methoxypyridin-3-yl)methoxy)benzyl)-6-(2,7-diazaspiro[3.5]nonan-2-yl)-3H-imidazo[4,5-b]pyridine]
232 | 133 |  | COc1ccc(COc2ccc(Cn3cnc4cc(N5CCC(N)CC5)cnc43)cc2OC)cn1 [Ex. 3-18-6, 1-(3-(3-Methoxy-4-((6-methoxypyridin-3-yl)methoxy)benzyl)-3H-imidazo[4,5-b]pyridin-6-yl)piperidin-4-amine]
